{"source": "patent US20100151486A1", "about": "“OSTEOPONTIN FUNCTIONAL EPITOPES, MONOCLONAL ANTIBODIES AGAINST THE EPITOPES AND USES THEREOF” (SHANGHAI NATIONAL ENGINEERING RESEARCH CENTER OF A, priority 2007, published 2010)", "molecules": {"B1": {"name": "murine anti-human OPN monoclonal antibody 1A12 (antibody, V domains shown)", "VH": "QVQLEQSGPELVKPGASVKMSCKSSGYTFTTYVMHWVKQKPGQGLEWIGYINPYNDGSKYNEKFKGKATLTSDKSSNTAYMELSSLTSEDSAVYYCASHYGGSPAYWGQGTLVTVSA", "VL": "DILMTQTPLSLPVSLGDQASISCRSSQSLVHSNGNTYLHWYLQKPGQSPKLLIYKVSNRFSGVPDRFSGSGSGTDFTLKISRVEAEDLGVYFCSQSTHVPWTFGGGTKLEIKR", "notes": "Hybridoma antibody purified from mouse ascites on protein A. Mouse constant regions; also called mouse anti-hOPN mAb 1A12; anti-OPN mAb 1A12"}, "B2": {"name": "human-mouse chimeric anti-hOPN antibody c1A12 (antibody, human IgG1, kappa, V domains shown)", "VH": "QVQLEQSGPELVKPGASVKMSCKSSGYTFTTYVMHWVKQKPGQGLEWIGYINPYNDGSKYNEKFKGKATLTSDKSSNTAYMELSSLTSEDSAVYYCASHYGGSPAYWGQGTLVTVSA", "VL": "DILMTQTPLSLPVSLGDQASISCRSSQSLVHSNGNTYLHWYLQKPGQSPKLLIYKVSNRFSGVPDRFSGSGSGTDFTLKISRVEAEDLGVYFCSQSTHVPWTFGGGTKLEIKR", "notes": "Tested as COS-1 supernatant in the ELISA and as CHO-purified antibody in the cell assays; also called chimeric antibody c1A12"}}, "key": {"[1]": {"test_system": "human vascular endothelial cell (HUVEC)", "experiment": "HUVEC proliferation by 3H-TdR incorporation", "format": "cell-based", "settings": "M200+1% BSA+OPN; 24 hours", "method": "HUVEC cell proliferation was measured by the ^3H-TdR incorporation method to determine the protective effect of OPN on cell survival and the inhibitory effect of the anti-OPN antibodies on the OPN protection. Each well of a 96-well plate was inoculated with 2×10^4 HUVECs and cultured in a complete medium for 24 hours. The cells were then treated as following for 24 hours: […]\niv. M200+1% BSA+OPN+murine anti-OPN antibody 1A12 v. M200+1% , BSA+OPN+human-murine chimeric anti-OPN antibody c1A12 vi. M200+1% BSA+OPN+humanized anti-OPN antibody h1A12 vii. M200+1% BSA+OPN+irrelevant antibody\n24 hours later, 1 uCi/well ^3H-thymidine was added and, after being incubated at 37° C. for 6 hours, washed once with PBS. The plate was treated with ice-cold 10% trichloroacetic acid/H2O at 4° C. for 10 min, and then washed for two times with, ice-cold ddH2O. Cytolysis was conducted by adding into each well 0.1 ml of 0.5 N NaOH, 0.5% SDS at room temperature for 10 min. After adding 0.2 ml of 0.5 N HCl and mixing, the cells were collected using a multiple cell collector."}, "[2]": {"test_system": "chicken embryo chorioallantoic membrane (CAM)", "experiment": "Chicken embryo chorioallantoic membrane (CAM) angiogenesis assay", "format": "in vivo", "settings": "human OPN 250 ng; P<0.01", "method": "The Leghorn chicken embryos were purchased from the farm with a fertilization rate of >90%. The 8-day old chicken embryos were selected. After sterilization, a small hole was drilled in the center of the top air chamber of the embryo with a lancet, the surrounding shell with the inner membrane was removed with caution to create an opening of 1 cm×1 cm. Then the following analytes/gelatin sponge were added to the CAM surface: i) PBS; ii) HOPN; iii) human OPN (250 ng); iv) human OPN (250 ng)+the irrelevant antibody as control (1 μg); v) human OPN (250 ng)+the murine anti-OPN antibody 1A12 (1 μg); vi) human OPN (250 ng)+the murine-human chimeric anti-OPN antibody c1A12 (1 μg); vii) human OPN (250 ng)+the humanized anti-OPN antibody h1A1.2 (1 μg).\nThe analytes/gelatin sponge were added to the CAM surface, which was far away from the already-formed dense vascular network. […] The number of vessels within an area edging 2 mm from the edges of the carrier slide was counted under a dissecting microscope to study the angiogenesis using the “vascular index” (Ribatti, D., B. Nico, A. Vacca et al., The gelatin sponge-chorioallantoic membrane assay. Nat Protoc, 2006, 1 (1): 85-91). The number of vessel was counted at the same magnification under the dissecting microscope. The result in each sample group was expressed as “mean±standard deviation (x±S)”. […]"}, "[3]": {"molecular_target": "T1, human osteopontin (human OPN protein) (human, UniProt P10451 17-314, limits assumed)", "T1 construct": "The isoform follows from the 963 bp PCR fragment and is not otherwise stated; also called hOPN", "T1 sequence (P10451 17-314 limits assumed)": "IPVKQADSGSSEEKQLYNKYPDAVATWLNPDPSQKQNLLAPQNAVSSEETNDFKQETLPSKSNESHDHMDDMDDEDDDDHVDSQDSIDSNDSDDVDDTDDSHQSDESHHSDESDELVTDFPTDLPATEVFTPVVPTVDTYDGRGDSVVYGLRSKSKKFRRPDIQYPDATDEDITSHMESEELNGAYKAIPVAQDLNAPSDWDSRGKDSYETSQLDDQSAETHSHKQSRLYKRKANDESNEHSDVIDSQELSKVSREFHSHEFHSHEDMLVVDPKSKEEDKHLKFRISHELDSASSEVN", "experiment": "Western blot on purified recombinant OPN"}, "[4]": {"molecular_target": "T1, human osteopontin (human OPN protein)", "experiment": "ELISA, plate coated with OPN 2 ug/ml, COS-1 supernatant, HRP-rabbit anti-human IgG", "method": "An ELISA plate was coated with 2 ug/ml OPN. The binding activity of the humanized antibody obtained from the transfection was detected by ELISA. […] The amino acid sequences of the h1A12HBb's and the h1A12Lb's variable regions were shown in FIG. 4, SEQ ID NO: 18 and SEQ ID NO: 19 show the nucleotide sequence and the amino acid sequence of h1A12Hb's variable region respectively. SEQ ID NO: 20 and SEQ ID NO: 21 show the nucleotide sequence and the amino acid sequence of h1A12Lb's variable region respectively. The genes of the humanized antibody's VH and VL (h1A12VHb/h1A12VLb) were synthesized respectively. […] Then, expression vectors of the light and the heavy chain were used to co-transfect the COS-1 cells. The antibody's antigen-binding activity was determined by ELISA. Specifically, an ELISA plate was coated with OPN protein (2 ug/ml) coated at 4° C. overnight, and was blocked with 2% BSA-PBS for 2 h at 37° C. […] HRP-rabbit anti-human IgG was added into the plate for binding reaction (incubated at 37° C. for 1 h)."}}, "data": [{"molecule": "OPN: human osteopontin protein expressed in Pichia yeast and purified (Example 3)", "values": [{"measurement": "3H-TdR incorporation relative to the 1% BSA treatment group", "setting": "[1]", "value": "3.08±0.64", "unit": "times"}, {"measurement": "angiogenesis in the chicken embryo's CAM in comparison with PBS", "setting": "[2]", "value": "significantly enhance"}]}, {"molecule": "B1", "values": [{"measurement": "binding result", "setting": "[3]", "value": "binds"}]}, {"molecule": "B2", "values": [{"measurement": "binding result", "setting": "[4]", "value": "binds"}]}]}
